Test results: US20080262228A1, “Metabolites of 5-fluoro-8- quinoline and methods of preparation and uses thereof” (Wyeth, priority 2006, published 2008)
Several values for one entry are separate records, joined by “and”; a condition that tells them apart may be missing. Identical values can stand only once.

Assay: In vivo metabolism and excretion of [14C]COMPOUND I in male beagle dogs, single oral 3 mg/kg dose
Parameters: species or system dog
Settings: for Cumulative Percent Excretion of Radioactivity in Feces (includes cage rinse): mean ± SD (n = 4)
Procedure: Dose preparation, animal dosing, and specimen collection were performed at Wyeth Research, Collegeville, Pa. The vehicle contained 2% (w/v) polysorbate 80, NF and 0.5% (w/v) methylcellulose (4000 cps) in water. [^14C]COMPOUND I trisuccinate salt (50.25 mg) and non-labeled COMPOUND I trisuccinate salt (331.9 mg) were suspended in 72 mL of the vehicle by grinding with a mortar and a pestle. The target [^14C]COMPOUND I concentration was approximately 3 mg/mL as free base and 48 μCi/mL with a target specific activity of 16 μCi/mg. Three pre- and post-dose aliquots (100 μL) were taken for the determination of radiochemical purity, drug and radioactivity concentrations and specific activity (see below).
Four male beagle dogs, weighing from 9.4 to 11.5 kg at the time of dosing, were from an in-house colony. Non-fasted dogs were given a single 3 mg/kg (approximately 48 μCi/kg) dose of [^14C]COMPOUND I at a volume of 1 mL/kg via intragastric gavage. Animals were provided Purina dog chow and water ad libitum, and were housed individually in metabolic cages.
Blood samples were collected from the jugular vein at 1, 4, 8, 24, 48, 72 and 120 hr after dose administration into tubes containing potassium EDTA as the anticoagulant and then placed on ice. Aliquots of 200 μL were removed and plasma was harvested immediately from the remaining blood by centrifugation at 4° C. Urine samples were collected into tubes on dry ice from 0-24 and 24-48 hr, and then at ambient temperature at 24 hr intervals for 7 days post-dose. Fecal samples were collected at 24 hr intervals for 7 days post-dose at room temperature. Cage rinses were collected daily by rinsing each cage with approximately 500 mL of 30% ethanol in water. The dose aliquots and biological specimens were stored at approximately −70° C. until analysis.
Triplicate aliquots of diluted dose (20 μL), dose fractions (10 μL) and plasma (50 μL), urine (200 μL) and cage wash (500 μL) from individual dogs were analyzed for radioactivity content. The samples were assayed in a Tri-Carb Model 3100TR liquid scintillation counter (Perkin Elmer) using 5 mL of Ultima Gold scintillation cocktail.
Fecal samples from individual dogs were weighed and homogenized in water at a volume-to-weight ratio of about 4:1 with a Silverson sealed-unit homogenizer at ambient temperature. Triplicate aliquots of whole blood (50 μL) and fecal homogenates (approximately 0.2 g) were placed into Combusto-cones with Combusto-pads and allowed to dry overnight. Samples were combusted with a model 307 Tri-Carb Sample Oxidizer, equipped with an Oximate-80 Robotic Automatic Sampler (Perkin Elmer). The liberated ^14CO2 was trapped with Carbo-Sorb® E carbon dioxide absorber, mixed with PermaFluor® E+liquid scintillation cocktail, and counted in a Tri-Carb Model 3100 TR/LL liquid scintillation counter.
Plasma samples were pooled by mixing equal volumes from four animals at each time point (1, 4, 8 and 24 hr). Aliquots of 2.0 mL of pooled plasma were mixed with 2.0 mL of acetonitrile, placed on ice for about 10 min, and then centrifuged at 4° C. The supernatant was transferred to a clean tube. The protein pellets were extracted two more times with 2.0 mL of acetonitrile. The supernatants from precipitation and extraction of each sample were pooled, mixed, and evaporated at 22° C. under nitrogen in a TurboVap LV evaporator (Caliper Life Sciences, Hopkinton, Mass.) to about 0.8 mL. The concentrated extract was centrifuged, the supernatant volume measured and the extraction efficiency was determined by analyzing duplicate 10 μL aliquots for radioactivity concentrations. For metabolite profiling, an aliquot of the supernatant (200 μL) was injected onto the HPLC column as described hereinbelow, and fractions were collected at 20 second intervals into 96-well Lumaplates (Perkin Elmer).

[1] = 1 hr, 3 mg/kg oral, individual dogs, 3 mg/kg
[2] = 4 hr, 3 mg/kg oral, individual dogs, 3 mg/kg
[3] = 8 hr, 3 mg/kg oral, individual dogs, 3 mg/kg
[4] = 24 hr, 3 mg/kg oral, individual dogs, 3 mg/kg
[5] = 48 hr, 3 mg/kg oral, individual dogs, 3 mg/kg
[6] = 72 hr, 3 mg/kg oral, individual dogs, 3 mg/kg
[7] = 120 hr, 3 mg/kg oral, individual dogs, 3 mg/kg
[8] = 120 hr, 3 mg/kg oral, mean ± SD

SMILES: COc1cc(N2CCN(C3CCN(c4ccc(F)c5cccnc45)CC3)CC2)c2ncccc2c1 [[^14C]COMPOUND I, [piperazine-^14C(U)]-5-fluoro-8-(4-(4-(6-methoxyquinolin-8-yl)piperazin-1-yl)piperidin-1-yl)quinoline trisuccinate]
- Recovery of Radioactivity in Cage Rinse (Percent of Dose) (0-24 hr, 3 mg/kg oral, individual dogs, 3 mg/kg): 0.18% and 1.64% and 1.74% and 0.78%
- Recovery of Radioactivity in Cage Rinse (Percent of Dose) (0-24 hr, 3 mg/kg oral, mean ± SD): 1.09 ± 0.74%
- Recovery of Radioactivity in Cage Rinse (Cumulative Percent of Dose) (0-48 hr, 3 mg/kg oral, individual dogs, 3 mg/kg): 0.46% and 2.57% and 2.20% and 1.75%
- Recovery of Radioactivity in Cage Rinse (Cumulative Percent of Dose) (0-48 hr, 3 mg/kg oral, mean ± SD): 1.75 ± 0.92%
- Cumulative Percent Excretion of Radioactivity in Feces (includes cage rinse) (0-48 hr, 3 mg/kg oral, 3 mg/kg): 61.2% and 61.2 ± 14.1%
- Recovery of Radioactivity in Cage Rinse (Cumulative Percent of Dose) (0-72 hr, 3 mg/kg oral, individual dogs, 3 mg/kg): 0.65% and 3.00% and 2.57% and 1.97%
- Recovery of Radioactivity in Cage Rinse (Cumulative Percent of Dose) (0-72 hr, 3 mg/kg oral, mean ± SD): 2.05 ± 1.02%
- Recovery of Radioactivity in Cage Rinse (Cumulative Percent of Dose) (0-96 hr, 3 mg/kg oral, individual dogs, 3 mg/kg): 0.72% and 3.27% and 2.66% and 2.05%
- Recovery of Radioactivity in Cage Rinse (Cumulative Percent of Dose) (0-96 hr, 3 mg/kg oral, mean ± SD): 2.18 ± 1.09%
- Recovery of Radioactivity in Cage Rinse (Cumulative Percent of Dose) (0-120 hr, 3 mg/kg oral, individual dogs, 3 mg/kg): 0.75% and 3.39% and 2.73% and 2.12%
- Recovery of Radioactivity in Cage Rinse (Cumulative Percent of Dose) (0-120 hr, 3 mg/kg oral, mean ± SD): 2.25 ± 1.13%
- Recovery of Radioactivity in Cage Rinse (Cumulative Percent of Dose) (0-144 hr, 3 mg/kg oral, individual dogs, 3 mg/kg): 0.79% and 3.49% and 2.77% and 2.17%
- Recovery of Radioactivity in Cage Rinse (Cumulative Percent of Dose) (0-144 hr, 3 mg/kg oral, mean ± SD): 2.31 ± 1.15%
- Recovery of Radioactivity in Cage Rinse (Cumulative Percent of Dose) (0-168 hr, 3 mg/kg oral, individual dogs, 3 mg/kg): 0.84% and 3.58% and 2.83% and 2.20%
- Recovery of Radioactivity in Cage Rinse (Cumulative Percent of Dose) (0-168 hr, 3 mg/kg oral, mean ± SD): 2.36 ± 1.16%
- Cumulative Percent Excretion of Radioactivity in Feces (includes cage rinse) (0-168 hr, 3 mg/kg oral, 3 mg/kg): 72.8% and 72.8 ± 3.28%
- dose excreted in urine (3 mg/kg oral): less than 7%
- Recovery of Radioactivity in Cage Rinse (Percent of Dose) (24-48 hr, 3 mg/kg oral, individual dogs, 3 mg/kg): 0.28% and 0.93% and 0.46% and 0.97%
- Recovery of Radioactivity in Cage Rinse (Percent of Dose) (24-48 hr, 3 mg/kg oral, mean ± SD): 0.66 ± 0.34%
- Recovery of Radioactivity in Cage Rinse (Percent of Dose) (48-72 hr, 3 mg/kg oral, individual dogs, 3 mg/kg): 0.19% and 0.43% and 0.37% and 0.22%
- Recovery of Radioactivity in Cage Rinse (Percent of Dose) (48-72 hr, 3 mg/kg oral, mean ± SD): 0.30 ± 0.12%
- Recovery of Radioactivity in Cage Rinse (Percent of Dose) (72-96 hr, 3 mg/kg oral, individual dogs, 3 mg/kg): 0.07% and 0.27% and 0.09% and 0.08%
- Recovery of Radioactivity in Cage Rinse (Percent of Dose) (72-96 hr, 3 mg/kg oral, mean ± SD): 0.13 ± 0.10%
- Recovery of Radioactivity in Cage Rinse (Percent of Dose) (96-120 hr, 3 mg/kg oral, individual dogs, 3 mg/kg): 0.03% and 0.12% and 0.07% (2×)
- Recovery of Radioactivity in Cage Rinse (Percent of Dose) (96-120 hr, 3 mg/kg oral, mean ± SD): 0.07 ± 0.04%
- Recovery of Radioactivity in Cage Rinse (Percent of Dose) (120-144 hr, 3 mg/kg oral, individual dogs, 3 mg/kg): 0.04% (2×) and 0.10% and 0.05%
- Recovery of Radioactivity in Cage Rinse (Percent of Dose) (120-144 hr, 3 mg/kg oral, mean ± SD): 0.06 ± 0.03%
- Recovery of Radioactivity in Cage Rinse (Percent of Dose) (144-168 hr, 3 mg/kg oral, individual dogs, 3 mg/kg): 0.05% and 0.09% and 0.06% and 0.03%
- Recovery of Radioactivity in Cage Rinse (Percent of Dose) (144-168 hr, 3 mg/kg oral, mean ± SD): 0.06 ± 0.03%
- Concentration of Total Radioactivity in Plasma [1]: 336 ng equivalents/mL and 426 ng equivalents/mL and 496 ng equivalents/mL and 437 ng equivalents/mL
- Concentration of Total Radioactivity in Whole Blood [1]: 270 ng equivalents/mL and 284 ng equivalents/mL and 404 ng equivalents/mL and 375 ng equivalents/mL
- Concentration of Total Radioactivity in Whole Blood (1 hr, 3 mg/kg oral, mean ± SD): 333 ± 66.3 ng equivalents/mL
- Concentration of Total Radioactivity in Plasma (1 hr, 3 mg/kg oral, mean ± SD, 3 mg/kg): 424±66.1 ng equivalents/mL
- Concentration of Total Radioactivity in Plasma [2]: 166 ng equivalents/mL and 228 ng equivalents/mL and 326 ng equivalents/mL and 181 ng equivalents/mL
- Concentration of Total Radioactivity in Whole Blood [2]: 138 ng equivalents/mL and 201 ng equivalents/mL and 191 ng equivalents/mL and 281 ng equivalents/mL
- Concentration of Total Radioactivity in Plasma (4 hr, 3 mg/kg oral, mean ± SD): 225 ± 72.2 ng equivalents/mL
- Concentration of Total Radioactivity in Whole Blood (4 hr, 3 mg/kg oral, mean ± SD): 203 ± 59.0 ng equivalents/mL
- Concentration of Total Radioactivity in Plasma [3]: 102 ng equivalents/mL and 135 ng equivalents/mL and 171 ng equivalents/mL and 121 ng equivalents/mL
- Concentration of Total Radioactivity in Whole Blood [3]: 93.5 ng equivalents/mL and 131 ng equivalents/mL and 160 ng equivalents/mL and 126 ng equivalents/mL
- Concentration of Total Radioactivity in Plasma (8 hr, 3 mg/kg oral, mean ± SD): 132 ± 29.2 ng equivalents/mL
- Concentration of Total Radioactivity in Whole Blood (8 hr, 3 mg/kg oral, mean ± SD): 128 ± 27.2 ng equivalents/mL
- Concentration of Total Radioactivity in Plasma [4]: 49.1 ng equivalents/mL and 69.3 ng equivalents/mL and 155 ng equivalents/mL and 89.7 ng equivalents/mL
- Concentration of Total Radioactivity in Whole Blood [4]: 41.2 ng equivalents/mL and 63.3 ng equivalents/mL and 98.5 ng equivalents/mL and 82.9 ng equivalents/mL
- Concentration of Total Radioactivity in Whole Blood (24 hr, 3 mg/kg oral, mean ± SD): 71.5 ± 24.8 ng equivalents/mL
- Concentration of Total Radioactivity in Plasma (24 hr, 3 mg/kg oral, mean ± SD, 3 mg/kg): 90.8±45.9 ng equivalents/mL
- Concentration of Total Radioactivity in Plasma [5]: 25.5 ng equivalents/mL and 28.2 ng equivalents/mL and 58.5 ng equivalents/mL and 40.7 ng equivalents/mL
- Concentration of Total Radioactivity in Whole Blood [5]: 22.2 ng equivalents/mL and 30.2 ng equivalents/mL and 40.8 ng equivalents/mL and 42.2 ng equivalents/mL
- Concentration of Total Radioactivity in Plasma (48 hr, 3 mg/kg oral, mean ± SD): 38.2 ± 15.1 ng equivalents/mL
- Concentration of Total Radioactivity in Whole Blood (48 hr, 3 mg/kg oral, mean ± SD): 33.9 ± 9.44 ng equivalents/mL
- Concentration of Total Radioactivity in Plasma [6]: 17.6 ng equivalents/mL and 21.4 ng equivalents/mL and 73.6 ng equivalents/mL and 39.0 ng equivalents/mL
- Concentration of Total Radioactivity in Whole Blood [6]: 16.8 ng equivalents/mL and 22.6 ng equivalents/mL and 25.2 ng equivalents/mL and 31.6 ng equivalents/mL
- Concentration of Total Radioactivity in Plasma (72 hr, 3 mg/kg oral, mean ± SD): 37.9 ± 25.6 ng equivalents/mL
- Concentration of Total Radioactivity in Whole Blood (72 hr, 3 mg/kg oral, mean ± SD): 24.1 ± 6.14 ng equivalents/mL
- Concentration of Total Radioactivity in Plasma [7]: 45.1 ng equivalents/mL (2×) and 46.0 ng equivalents/mL and 46.7 ng equivalents/mL
- Concentration of Total Radioactivity in Whole Blood [7]: 16.6 ng equivalents/mL and 18.4 ng equivalents/mL and 18.0 ng equivalents/mL and 24.0 ng equivalents/mL
- Concentration of Total Radioactivity in Plasma [8]: 45.7 ± 0.78 ng equivalents/mL
- Concentration of Total Radioactivity in Whole Blood [8]: 19.3 ± 3.26 ng equivalents/mL
- administered dose excreted after the completion of the study (estimated from radioactivity in urine collected for several additional weeks): about 5%
